Reference: patent US20160083643A1, “ENHANCED OIL RECOVERY METHOD EMPLOYING A BIODEGRADABLE BRINE TOLERANT FOAM-FORMING COMPOSITION” (DOW GLOBAL TECHNOLOGIES LLC, priority 2013, published 2016)

What was measured:
Daphna magna = assay: 48-hour acute toxicity to Daphna magna; type: in vivo; conditions: isolated, purified component from Example 3
Desmondesmus subspicatus = assay: Fresh water algal growth inhibition test (OECD 201); type: cell-based; conditions: isolated, purified component from Example 3; read-out: Fresh Water algal growth inhibition test with Desmondesmus subspicatus ErC50/0-3
From the text: Aquatic Toxicity procedures and test methods are based on the recommendations of the following guidelines: Organization for Economic Cooperation and Development (OECD): OECD Guidelines for the Testing of Chemicals, “Freshwater Alga and Cyanobacteria, Growth Inhibition Test”, Procedure 201, adopted 23 Mar. 2006; European Economic Community (EEC): Commission directive 92/69/EEC of 31 Jul. 1992, Methods for the determination of ecotoxicity, C.3., “Algal Inhibition Test”. Preferably the surfactants of the present invention have a toxicity profile (EC50)>1 and </=10 mg/l; more preferably an EC50>10 and </=100 mg/l; and most preferably an EC50>100 mg/l.
The study procedures and test methods for aquatic toxicity are based on the recommendations of the following guidelines: Organization for Economic Cooperation and Development (OECD): OECD Guidelines for the Testing of Chemicals, “Freshwater Alga and Cyanobacteria, Growth Inhibition Test”, Procedure 201, adopted 23 Mar. 2006; European Economic Community (EEC): Commission directive 92/69/EEC of 31 Jul. 1992, Methods for the determination of ecotoxicity, C.3., “Algal Inhibition Test”.
Data from the aquatic toxicity tests of the isolated and purified C12 monosulfonate (sodium 2-(dodecanyloxy)-3-hydroxypropane-1-sulfonate) and C12 disulfonate (sodium 2-(dodecanyloxy)propane-1,3-disulfonate) from Example 3 is shown in Table 2. […]

Row | Structure (SMILES) | EC50 (Daphna magna) [µg/mL] | EC50 (Desmondesmus subspicatus) [µg/mL]
1 | CCCCCCCCCCCCOC(CS(=O)(=O)[O-])CS(=O)(=O)[O-].[Na+].[Na+] [C12 disulfonate component, sodium 2-(dodecanyloxy)propane-1,3-disulfonate] | > 100 | > 100
2 | CCCCCCCCCCCCOC(CO)CS(=O)(=O)[O-].[Na+] (stereo not shown) [C12 monosulfate component, sodium 2-(dodecanyloxy)-3-hydroxypropane-1-sulfonate] | > 100 | > 100
